Toxic doses and inconclusive results are not listed. How the source made its calls: active means survival T/C of 150% or more; inactive means T/C below 125% in these data.
Test system: CD2F1 mice, L1210 leukemia ip, survival T/C
Test: NCI In Vivo Anticancer Drug Screen. Data for tumor model L1210 Leukemia (intraperitoneal) in CD2F1 (CDF1) mice
Conditions: higher = longer survival
Method in brief: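 Activity against a transplanted murine tumor was judged by comparing the compound group with a vehicle group. The outcome in the treated animals was divided by that in the controls.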

[1] = endpoint: mean survival time, dose: 100.0 mg/kg/injection, schedule: Q01DX001 (ip), vehicle: saline with Tween-80
[2] = endpoint: mean survival time, dose: 200.0 mg/kg/injection, schedule: Q01DX001 (ip), vehicle: saline with Tween-80
[3] = endpoint: mean survival time, dose: 400.0 mg/kg/injection, schedule: Q01DX001 (ip), vehicle: saline with Tween-80
[4] = endpoint: mean survival time, dose: 100.0 mg/kg/injection, schedule: Q04DX003 (ip), vehicle: saline with Tween-80
[5] = endpoint: mean survival time, dose: 200.0 mg/kg/injection, schedule: Q04DX003 (ip), vehicle: saline with Tween-80
[6] = endpoint: mean survival time, dose: 400.0 mg/kg/injection, schedule: Q04DX003 (ip), vehicle: saline with Tween-80
[7] = endpoint: mean survival time, dose: 100.0 mg/kg/injection, schedule: Q04DX002 (ip), vehicle: saline with Tween-80
[8] = endpoint: mean survival time, dose: 200.0 mg/kg/injection, schedule: Q04DX002 (ip), vehicle: saline with Tween-80
[9] = endpoint: mean survival time, dose: 400.0 mg/kg/injection, schedule: Q04DX002 (ip), vehicle: saline with Tween-80
[10] = endpoint: mean survival time, dose: 100.0 mg/kg/injection, schedule: Q01DX009 (ip), vehicle: saline with Tween-80
[11] = endpoint: mean survival time, dose: 200.0 mg/kg/injection, schedule: Q01DX009 (ip), vehicle: saline with Tween-80
[12] = endpoint: mean survival time, dose: 400.0 mg/kg/injection, schedule: Q01DX009 (ip), vehicle: saline with Tween-80
[13] = endpoint: mean survival time, dose: 6.25 mg/kg/injection, schedule: Q04DX002 (ip), vehicle: saline with Tween-80
[14] = endpoint: mean survival time, dose: 12.5 mg/kg/injection, schedule: Q04DX002 (ip), vehicle: saline with Tween-80
[15] = endpoint: mean survival time, dose: 100.0 mg/kg/injection, schedule: Q01DX009 (ip), vehicle: Klucel (hydroxypropylcellulose) (HPC)

Measured: T/C

Cc1cc(=NO)cc(C)n1O
inactive: endpoint: median survival time, dose: 25.0 mg/kg/injection, schedule: Q01DX009 (ip), vehicle: distilled water + alcohol 108 % of control | endpoint: median survival time, dose: 50.0 mg/kg/injection, schedule: Q01DX009 (ip), vehicle: distilled water + alcohol 104 % of control | endpoint: median survival time, dose: 100.0 mg/kg/injection, schedule: Q01DX009 (ip), vehicle: distilled water + alcohol 112 % of control | endpoint: median survival time, dose: 200.0 mg/kg/injection, schedule: Q01DX009 (ip), vehicle: distilled water + alcohol 108 % of control | endpoint: median survival time, dose: 400.0 mg/kg/injection, schedule: Q01DX009 (ip), vehicle: distilled water + alcohol 97 % of control

C=CCN(C(C)=O)c1nnc(N(CC=C)C(C)=O)s1
inactive: [1] 100 % of control | [2] 100 % of control | [3] 100 % of control

Brc1ccc(-c2ccc(Br)cc2)cc1
inactive: endpoint: mean survival time, dose: 100.0 mg/kg/injection, schedule: Q04DX003 (ip), vehicle: Klucel (hydroxypropylcellulose) (HPC) 105 % of control | endpoint: mean survival time, dose: 200.0 mg/kg/injection, schedule: Q04DX003 (ip), vehicle: Klucel (hydroxypropylcellulose) (HPC) 95 % of control | endpoint: mean survival time, dose: 400.0 mg/kg/injection, schedule: Q04DX003 (ip), vehicle: Klucel (hydroxypropylcellulose) (HPC) 95 % of control

O=C(O)CC/C(=N\O)c1cccc([N+](=O)[O-])c1
inactive: [4] 102 % of control | [5] 102 % of control | [6] 98 % of control

CNC(=S)SCCC(=O)O
inactive: [7] 113 % of control | [8] 102 % of control | [9] 102 % of control

C/C(=N\O)C1(C)CC=CCC1C(=O)O (stereo unspecified)
inactive: [10] 90 % of control | [4] 100 % of control | [11] 93 % of control | [5] 96 % of control | [12] 94 % of control | [6] 94 % of control

O=P(c1ccccc1)(c1ccccc1)c1ccccc1
inactive: [10] 97 % of control | [4] 97 % of control | [11] 95 % of control | [5] 100 % of control | [12] 100 % of control

C#CCOC1CCCC1O (stereo unspecified)
inactive: endpoint: mean survival time, dose: 100.0 mg/kg/injection, schedule: Q04DX003 (ip), vehicle: acetone 101 % of control

CCOC(=O)C1CC=CCC1C(=O)OCC (stereo unspecified)
inactive: endpoint: mean survival time, dose: 35.0 mg/kg/injection, schedule: Q04DX003 (ip), vehicle: other 111 % of control | endpoint: mean survival time, dose: 65.0 mg/kg/injection, schedule: Q04DX003 (ip), vehicle: other 94 % of control | endpoint: mean survival time, dose: 100.0 mg/kg/injection, schedule: Q04DX003 (ip), vehicle: other 103 % of control | endpoint: mean survival time, dose: 150.0 mg/kg/injection, schedule: Q04DX003 (ip), vehicle: other 100 % of control

CN(C)CCOC(=O)COc1ccc(Cl)cc1
inactive: endpoint: mean survival time, dose: 100.0 mg/kg/injection, schedule: Q01DX001 (ip), vehicle: saline 97 % of control | endpoint: mean survival time, dose: 200.0 mg/kg/injection, schedule: Q01DX001 (ip), vehicle: saline 100 % of control | endpoint: mean survival time, dose: 400.0 mg/kg/injection, schedule: Q01DX001 (ip), vehicle: saline 94 % of control

O=[N+]([O-])c1ccc2nc3ccccc3cc2c1
inactive: [4] 92 % of control | [5] 92 % of control | [6] 91 % of control

CC(C)([NH-])C[NH-].O=C(O)CC(=O)O.[Pt+2]
inactive: endpoint: median survival time, dose: 20.0 mg/kg/injection, schedule: Q04DX003 (ip), vehicle: distilled water + Tween-80 104 % of control

COc1cccc2c1C(=O)c1c(O)c3c(c(O)c1C2=O)CC(O)(/C(C)=N/NC(=O)CCCC(=O)N/N=C(\C)C1(O)Cc2c(O)c4c(c(O)c2C(OC2CC(N)C(O)C(C)O2)C1)C(=O)c1c(OC)cccc1C4=O)CC3OC1CC(N)C(O)C(C)O1 (stereo unspecified)
inactive: endpoint: mean survival time, dose: 0.2 mg/kg/injection, schedule: Q01DX009 (ip), vehicle: water 101 % of control | endpoint: mean survival time, dose: 0.39 mg/kg/injection, schedule: Q01DX009 (ip), vehicle: water 98 % of control | endpoint: mean survival time, dose: 0.78 mg/kg/injection, schedule: Q01DX009 (ip), vehicle: water 109 % of control | endpoint: mean survival time, dose: 1.56 mg/kg/injection, schedule: Q01DX009 (ip), vehicle: water 104 % of control | endpoint: mean survival time, dose: 3.13 mg/kg/injection, schedule: Q01DX009 (ip), vehicle: water 114 % of control

CCC[CH2][Sn]1([CH2]CCC)[O]c2ccccc2[O]1
inactive: endpoint: mean survival time, dose: 1.56 mg/kg/injection, schedule: Q04DX002 (ip), vehicle: saline with Tween-80 100 % of control | endpoint: mean survival time, dose: 3.12 mg/kg/injection, schedule: Q04DX002 (ip), vehicle: saline with Tween-80 96 % of control | [13] 98 % of control | [14] 113 % of control

c1cc2nc(c1)CSCCCCCCSC2
inactive: [10] 91 % of control | [11] 90 % of control | [12] 91 % of control

CCOC(=O)CN1C(=O)CN=C(c2ccccn2)c2cc(Cl)ccc21
inactive: [4] 102 % of control | [5] 89 % of control | [6] 89 % of control

O/N=C(/CN1CCOCC1)c1ccc(Cl)cc1
inactive: endpoint: mean survival time, dose: 50.0 mg/kg/injection, schedule: Q01DX009 (ip), vehicle: saline 100 % of control | endpoint: mean survival time, dose: 100.0 mg/kg/injection, schedule: Q01DX009 (ip), vehicle: saline 97 % of control | endpoint: mean survival time, dose: 200.0 mg/kg/injection, schedule: Q01DX009 (ip), vehicle: saline 103 % of control

N#CCCCCCCn1cnc2c(N)ncnc21
inactive: endpoint: mean survival time, dose: 50.0 mg/kg/injection, schedule: Q04DX002 (ip), vehicle: saline with Tween-80 102 % of control | [1] 97 % of control | [7] 105 % of control | [2] 97 % of control | [8] 90 % of control

CCCCCC#CC1OC12CCCCC2 (stereo unspecified)
inactive: endpoint: mean survival time, dose: 12.5 mg/kg/injection, schedule: Q01DX009 (sc), vehicle: saline with Tween-80 97 % of control | endpoint: mean survival time, dose: 25.0 mg/kg/injection, schedule: Q01DX009 (sc), vehicle: saline with Tween-80 104 % of control | endpoint: mean survival time, dose: 50.0 mg/kg/injection, schedule: Q01DX009 (sc), vehicle: saline with Tween-80 98 % of control | endpoint: mean survival time, dose: 100.0 mg/kg/injection, schedule: Q01DX009 (sc), vehicle: saline with Tween-80 103 % of control | endpoint: mean survival time, dose: 200.0 mg/kg/injection, schedule: Q01DX009 (sc), vehicle: saline with Tween-80 98 % of control

CC(=O)N/C(=C\c1ccccc1)C(N)=O
inactive: [10] 103 % of control | [11] 95 % of control | [12] 100 % of control

OC(CS)C(c1ccccc1)c1ccccc1 (stereo unspecified)
inactive: [4] 98 % of control | [5] 93 % of control | [6] 96 % of control

O=C(CC(=O)C(F)(F)C(F)(F)C(F)(F)F)C(F)(F)F.O=C(CC(=O)C(F)(F)C(F)(F)C(F)(F)F)C(F)(F)F.[Cu]
inactive: endpoint: mean survival time, dose: 3.13 mg/kg/injection, schedule: Q04DX002 (ip), vehicle: saline with Tween-80 90 % of control | [13] 87 % of control | [14] 102 % of control | endpoint: mean survival time, dose: 25.0 mg/kg/injection, schedule: Q04DX002 (ip), vehicle: saline with Tween-80 98 % of control | endpoint: median survival time, dose: 25.0 mg/kg/injection, schedule: Q04DX002 (ip), vehicle: saline with Tween-80 111 % of control

CCCCCCCCCCCCCCNCCC(=O)O
inactive: endpoint: mean survival time, dose: 75.0 mg/kg/injection, schedule: Q01DX001 (ip), vehicle: saline 98 % of control | endpoint: mean survival time, dose: 150.0 mg/kg/injection, schedule: Q01DX001 (ip), vehicle: saline 106 % of control

CC(=O)C(C[CH2][Hg][Cl])C(C)=O
inactive: endpoint: mean survival time, dose: 75.0 mg/kg/injection, schedule: Q01DX001 (ip), vehicle: other 92 % of control

COc1cc(NC(=O)O/N=C/c2ccccn2)cc(OC)c1OC
inactive: [1] 95 % of control | [3] 92 % of control

CC(=O)OC1CCC2(C)C(=CCC3C2CCC2(C)C(C(C)CCCC(C)(C)O)CCC32)C1 (stereo unspecified)
inactive: [4] 97 % of control | [5] 89 % of control | [6] 94 % of control

COC(=O)CC1(C(=O)OC)Nc2cc(Cl)c(Cl)cc2S(=O)(=O)N1O (stereo unspecified)
inactive: [1] 106 % of control | [2] 94 % of control | [3] 94 % of control

Cc1cc2c(=O)c(C)c[nH]c2cc1Cl
inactive: endpoint: mean survival time, dose: 50.0 mg/kg/injection, schedule: Q01DX009 (ip), vehicle: Klucel (hydroxypropylcellulose) (HPC) 89 % of control | [15] 86 % of control

O=C(O)CCCC1CCc2ccccc2C1 (stereo unspecified)
inactive: [15] 96 % of control | endpoint: mean survival time, dose: 200.0 mg/kg/injection, schedule: Q01DX009 (ip), vehicle: Klucel (hydroxypropylcellulose) (HPC) 102 % of control | endpoint: mean survival time, dose: 400.0 mg/kg/injection, schedule: Q01DX009 (ip), vehicle: Klucel (hydroxypropylcellulose) (HPC) 97 % of control

SCc1c(Cl)c(Cl)c(Cl)c(Cl)c1Cl
inactive: [7] 94 % of control | [8] 87 % of control | [9] 97 % of control

CC(=O)NCCCN1CCOCC1
inactive: endpoint: mean survival time, dose: 100.0 mg/kg/injection, schedule: Q04DX003 (ip), vehicle: saline 96 % of control | endpoint: mean survival time, dose: 200.0 mg/kg/injection, schedule: Q04DX003 (ip), vehicle: saline 104 % of control | endpoint: mean survival time, dose: 400.0 mg/kg/injection, schedule: Q04DX003 (ip), vehicle: saline 98 % of control
